The test system of the test is HL-60. The experiment in a line: Cytotoxicity against human HL60 cells after 72 hrs by MTS assay. Conditions: HL-60, 72 h. Format: functional, cell-based.

In the case of `CC/C=C/[C@@H]1CC[C@]2(C[C@H]3CC[C@H]4[C@@H](C(=O)OC(CC)CCCCCCCCCCCCC[C@@H]5O[C@](O)(CCN)[C@H](O)N(CCCN)C5=O)[C@@]5(CCC[C@H](C)O5)NC(=[N+]34)N2)O1` (stereo partly specified) [MONANCHOCIDIN A], the IC50 was determined as 540 nM.
Compound `CC[C@@H]1C=CCC[C@]2(C[C@H]3CC[C@H]4[C@@H](C(=O)OCCCCCCCCCCCCCC[C@@H]5O[C@](O)(CCN)[C@H](O)N(CCCN)C5=O)[C@@]5(CCC[C@H](C)O5)NC(=[N+]34)N2)O1` [MONANCHOCIDIN B] came in with a 50% inhibitory concentration (IC50) of 200 nM.
For `CC[C@@H]1C=CCC[C@]2(C[C@H]3CC[C@H]4[C@@H](C(=O)OCCCCCCCCCCCCCCC[C@@H]5O[C@](O)(CCN)[C@H](O)N(CCCN)C5=O)[C@@]5(CCC[C@H](C)O5)NC(=[N+]34)N2)O1` [MONANCHOCIDIN C], the IC50 turned out to be 110 nM. This IC50 is about 1.8-fold lower than that of the compound before.
Regarding `CC/C=C/[C@@H]1CC[C@]2(C[C@H]3CC[C@H]4[C@@H](C(=O)OC(CC)CCCCCCCCCCCC[C@@H]5O[C@](O)(CCN)[C@H](O)N(CCCN)C5=O)[C@@]5(CCC[C@H](C)O5)NC(=[N+]34)N2)O1` (stereo partly specified) [MONANCHOCIDIN E], inhibition was half-maximal at 650 nM (IC50). This IC50 is about 5.9-fold higher than that of the compound before.
The compound `CC/C=C/[C@@H]1CC[C@]2(C[C@H]3CC[C@H]4[C@@H](C(=O)OCCCCCCCCCCCCCC[C@@H]5O[C@](O)(CCN)[C@H](O)N(CCCN)C5=O)[C@@]5(CCC[C@H](C)O5)NC(=[N+]34)N2)O1` [MONANCHOCIDIND] returned an IC50 of 830 nM.
Then `CC(=O)O[C@H]1C(=O)[C@@]2(C)[C@H]([C@H](OC(=O)c3ccccc3)[C@]3(O)C[C@H](OC(=O)[C@H](O)[C@@H](NC(=O)c4ccccc4)c4ccccc4)C(C)=C1C3(C)C)[C@]1(OC(C)=O)CO[C@@H]1C[C@@H]2O` [PACLITAXEL], with 3.4 nM.

The record behind these values is ChEMBL document CHEMBL1821617, “Monanchocidins B-E: polycyclic guanidine alkaloids with potent antileukemic activities from the sponge Monanchora pulchra” (J Nat Prod, 2011).
